A short description of data set [1]: Chemical exchange rate (kex) of amide protons from 1H-NMR linewidth. The data set is classed as physicochemical. Here is the method: High-resolution 1H-NMR spectra were recorded on a Bruker Avance 600 spectrometer (Bruker BioSpin Rheinstetten, Germany) operating at 14 T (corresponding to a proton Larmor frequency of 600.13 MHz) equipped with a Z-gradient 5 mm inverse probe. Sample temperature control was monitored within +/−0.1 K by means of the BTO2000 variable temperature unit. 1H NMR spectra to measure the linewidth of exchangeable protons were obtained by means of a pulse sequence using water suppression by excitation sculpting with gradients (T. L. Hwang, A. J. Shaka Water Suppression That Works. Excitation Sculpting Using Arbitrary Wave-Forms and Pulsed-Field Gradients, J. Magn. Reson. Ser. A, 1995, 112(3), 275-279). The carrier frequency was carefully set on resonance to the water signal. Simple “excite-detect” acquisitions (typical parameters: 16 ppm spectral window, 32 k complex data points, 3 s relaxation delay, and 64 averaged FIDs) were carried out to measure the linewidths of the exchangeable amide protons at 310 K. In vitro studies were performed by preparing 30 mM solutions of Iodixanol in aqueous phosphate buffer solution (10 mM), with the pH adjusted within the 5.5-7.4 range by addition of aliquots of HCl/NaOH. Capillaries containing the solutions were transferred into a 5 mm NMR tube filled with D2O for field-frequency lock.
Exchange rate values analogously assessed in the pH range of from 5.4 to 7.9 for some radiographic contrast agents according to the invention are provided in the following Table 3.

For data set [2] the following is noted: 7.05 T, 310 K, pH 7.4; cited from earlier work.

Take `CC(=O)N(CC(O)CN(C(C)=O)c1c(I)c(C(=O)NCC(O)CO)c(I)c(C(=O)NCC(O)CO)c1I)c1c(I)c(C(=O)NCC(O)CO)c(I)c(C(=O)NCC(O)CO)c1I` (stereo not drawn) [Iodixanol]: the Kex stood at 32 s⁻¹ in data set [1] (pH 5.5, 310K); 51 s⁻¹ in data set [1] (pH 6.0, 310K); 80 s⁻¹ in data set [1] (pH 6.3, 310K); 179 s⁻¹ in data set [1] (pH 6.7, 310K); 476 s⁻¹ in data set [1] (pH 7.0, 310K); 1213 s⁻¹ in data set [1] (pH 7.4, 310K). Moreover, the Kex in data set [1] (pH 7.9, 310K) is 1332 s⁻¹; in data set [1] (physiological conditions, Example 1), “exceeds 200 Hz”.
Regarding `CC(=O)N(CC(O)CO)c1c(I)c(C(=O)NCC(O)CO)c(I)c(C(=O)NCC(O)CO)c1I` (stereo not drawn) [Iohexol], the Kex stood at 22 s⁻¹ in data set [1] (pH 5.5, 310K); 69 s⁻¹ in data set [1] (pH 6.0, 310K); 139 s⁻¹ in data set [1] (pH 6.3, 310K); 372 s⁻¹ in data set [1] (pH 6.7, 310K); 923 s⁻¹ in data set [1] (pH 7.0, 310K); 1609 s⁻¹ in data set [1] (pH 7.4, 310K). This compound also gave a Kex in data set [1] (pH 7.9, 310K) of 4056 s⁻¹.
As to `CN(C(=O)CO)c1c(I)c(C(=O)NCC(O)CO)c(I)c(C(=O)NCC(O)CO)c1I` (stereo not drawn) [Iomeprol], the Kex in data set [1] (pH 5.5, 310K) was determined as 30 s⁻¹; in data set [1] (pH 6.0, 310K), 88 s⁻¹; in data set [1] (pH 6.3, 310K), 164 s⁻¹; in data set [1] (pH 6.7, 310K), 430 s⁻¹; in data set [1] (pH 7.0, 310K) it was 794 s⁻¹; in data set [1] (pH 7.4, 310K), 1831 s⁻¹. In data set [1] (pH 7.9, 310K), the Kex worked out at 4389 s⁻¹.
Regarding `C[C@H](O)C(=O)Nc1c(I)c(C(=O)NC(CO)CO)c(I)c(C(=O)NC(CO)CO)c1I` [Iopamidol], the “averaged Kex exchange rate of amide mobile protons” value in data set [2] is reported as “about 2560 s^−1”.
`O=C(NCC(O)CO)c1c(I)c(C(=O)NCC(O)CO)c(I)c(N(CCO)C(=O)CO)c1I` (stereo not drawn) [Ioversol]: the Kex in data set [1] (pH 5.5, 310K) came to 22 s⁻¹; in data set [1] (pH 6.0, 310K) it was 66 s⁻¹; in data set [1] (pH 6.3, 310K) it was 118 s⁻¹; in data set [1] (pH 6.7, 310K), 292 s⁻¹; in data set [1] (pH 7.0, 310K) it was 913 s⁻¹; in data set [1] (pH 7.4, 310K), 1628 s⁻¹. In data set [1] (pH 7.9, 310K), this compound returned a Kex of 3660 s⁻¹.

These data come from US20210263122A1, “RATIOMETRIC PULSED CEST IMAGING” (BRACCO IMAGING S.P.A., priority 2015, published 2021).
